Source: patent US11382884B2, “Method for reducing lung infection” (priority 2017, dated 2022)
Read-outs that look alike come from different tables or passages of the source.

Experiments:
[1] = system: P. aeruginosa WACC91 planktonic cells; assay: Checkerboard, tobramycin with other chelators; assay type: cell-based, Pseudomonas aeruginosa; details: for effect on the MIC of tobramycin: concentration-dependent, FIGS. 13 and 14
Method: (§1) Growth method 2: Overnight cultures of the relevant strain of P. aeruginosa were grown in M63 medium supplemented with glucose (0.5% w/v), casamino acids (0.2% w/v) and MgSO4 (1 mM) at 35° C. with shaking. 96-well microplates containing M63 with serial dilutions of antibiotics and adjuvants as indicated were inoculated to OD600 nm 0.01 in a final volume of 200 μl. Plates were incubated at 35° C. overnight without shaking.
Cells were grown according to method 2 and challenged with different concentrations of tobramycin.

P. aeruginosa ATCC27853 = assay: Time-kill assay, ceftazidime with or without buffered CaEDTA; assay type: cell-based, Pseudomonas aeruginosa; details: ceftazidime 128 ug/ml, buffered CaEDTA 20 mM
Method: This is likely a result of increased antibiotic killing. Challenge microorganisms were grown on solid agar and suspended in 0.9% Sodium Chloride (SCl) to create a challenge suspension. A 0.1 mL aliquot of the challenge suspension containing approximately 1×10^8 colony forming units was then inoculated into 10 mL Cation-Adjusted Mueller Hinton Broth (CaMHB) with the appropriate antibiotic or antibiotic with chelator, as indicated, and mixed thoroughly. The challenge suspension/antibiotic mixtures were then incubated at 35 degrees C. for the exposure time. At each timepoint, 0.1 mL aliquots were removed and placed into 9.9 mL of Butterfield's Phosphate Buffer with product neutralizers, mixed thoroughly by vortexing, and plated using the appropriate agar. Recovered colonies were enumerated using a hand-tally counter.

P. aeruginosa = details: ten CF children, nebulised sodium EDTA and oral tetracycline for three months; cited from earlier work
[2] = system: P. aeruginosa planktonic cells and biofilms; assay: Microplate test of antibiotics of different classes with buffered CaEDTA; assay type: cell-based, Pseudomonas aeruginosa; details: growth method 2; FIGS. 7-12
Method: as §1
(§2) Planktonic growth was monitored by OD reading or plate counting. Biofilms were quantified by staining with 40 μl of crystal violet stain (1% w/v in water) for 10 min at room temperature, washing twice with 250 μl of water, dissolving the stain in 250 μl of 50% ethanol and reading optical density at 595 nm.
Cells were grown according to method 2 and challenged with buffered CaEDTA and a series of clinically relevant antibiotics of different classes with different modes of action.

[3] = system: Burkholderia cepacia planktonic cells; assay: Checkerboard, antibiotics with buffered CaEDTA; assay type: cell-based; details: FIGS. 15 and 16
Method: (§3) Checkerboard assays of other species were carried out using growth method 1, apart from the following variations. Burkholderia cepacia was incubated at 30° C., and other bacteria were incubated at 37° C. Streptococcus pyogenes and Streptococcus pneumoniae were grown in Todd Hewitt Broth, and Staphylococcus aureus was grown in Veal Infusion Broth.

[4] = system: P. aeruginosa clinical strain biofilms; assay: Biofilms in hanging drops of CF mucus treated with nebulised tobramycin and/or aerosolised EDTA particles; assay type: cell-based, Pseudomonas aeruginosa; details: for biofilm viability (BacLight LIVE/DEAD, confocal microscopy): 5 min treatment, nebulised tobramycin 20 mg/ml and/or aerosolised EDTA particles 10 mg/ml, 16 hours incubation, FIG. 24A
Method: Biofilms were grown in a realistic in vitro model using suspended drops of cystic fibrosis mucus harvested from epithelial cell lines (Haley, C. L., Colmer-Hamood, J. A., and Hamood, A. N. (2012). Characterization of biofilm-like structures formed by Pseudomonas aeruginosa in a synthetic mucus medium. BMC Microbiol 12, 181.).
Drops of mucus (5 μl) were suspended from an inverted IBIDI cover slip and inoculated with 10^3 cfu, then incubated in a humidified environment at 35° C. for 72 hours to allow biofilm development. […] Controls were treated with a 50/50 solution of nebulised 0.9% saline/water. Following treatment, the drops were incubated for 16 hours, then stained with BacLight LIVE/DEAD (1 μl), and fixed in paraformaldehyde vapour for 30 min. Biofilms were visualised using confocal microscopy.

[5] = system: P. aeruginosa WACC91 biofilms; assay: Checkerboard, biofilm growth (crystal violet staining), tobramycin with CaEDTA or buffered CaEDTA; assay type: cell-based, Pseudomonas aeruginosa
Method: (§4) Growth method 1: Cells were grown in M9 medium supplemented with arginine and MgSO4, in polystyrene 96-well plates (Nunc) by seeding each well with […] of an overnight culture of P. aeruginosa strain WACC 91 and incubating at 37° C. for 24 hours.
(§5) Anaerobic cultures were incubated in a closed chamber with anaerobic sachets to remove oxygen.
as §2
(§6) Cells of P. aeruginosa WACC91 were grown according to method 1 and tested in a checkerboard assay against tobramycin and CaEDTA in varying concentrations.

[6] = system: P. aeruginosa clinical strain; assay: MIC of tobramycin for the clinical strain; assay type: cell-based; details: Pseudomonas aeruginosa; P. aeruginosa clinical strain used in the CF mucus model
[7] = system: Staphylococcus aureus MRSA; assay: Antibiotics with buffered CaEDTA against MRSA; assay type: cell-based; details: FIG. 19 (vancomycin), FIG. 21 (ciprofloxacin)
Method: as §3

S. aureus MSSA = assay: Ciprofloxacin with buffered CaEDTA against MSSA; assay type: cell-based, Staphylococcus aureus; details: FIG. 20
Method: as §3

[8] = single dose of 75 mg CaEDTA; after 30 minutes; FIG. 28
Method: Vials were then centrifuged at 100 g for 5 min to sediment precipitated proteins and 754 μL of the methanol extract taken for derivatisation. […] Derivatised extract (1 μl) was injected into a Waters microflow HPLC equipped with a triple quad mass […] detector.

P. aeruginosa WACC91 = details: for interaction with tobramycin, planktonic growth (OD600 nm): checkerboard
Method: as §4, §5, §2, §6

P. aeruginosa biofilms = system: P. aeruginosa biofilms
Method: Biofilm disruption or killing was monitored by growing cells as described and removing planktonic cells by pipetting. The attached biofilm was washed carefully with sterile PBS three times, and fresh medium containing the treatment (tobramycin alone or together with CaNa2EDTA in solution, tris-buffered solution, or as dry powder particles) was added. Plates were incubated for a further 24 hours and metabolic activity was measured. Biofilms were washed as described above, then fresh medium containing 0.02% w/v resazurin was added. Plates were shaken briefly to mix, then incubated at 37° C. for 2 hours. Metabolic activity, as reflected by the conversion of resazurin to resafurin, was assessed by measuring the increase in fluorescence at an excitation wavelength of 530 nm with detection at 590 nm.

[9] = 300 mg/day for two weeks (75 mg QID); FIG. 26
Method: Subjects were then discharged and treatment was continued twice a day for four weeks. Patients were monitored for a further four weeks, bringing the total study time to 10 weeks. At each study visit, lung function was measured by spirometry. Data was recorded as the best of three attempts, and results were expressed as % predicted.

[10] = system: Klebsiella pneumoniae planktonic cells and biofilms; assay: Checkerboard, colistin with buffered CaEDTA; assay type: cell-based
Method: as §3

[11] = 4 ug/ml tobramycin, 6.25 mM CaEDTA, aerobic and anaerobic, FIG. 5

O=C(O)CN(CCN(CC(=O)O)CC(=O)O)CCN(CC(=O)O)CC(=O)O [DTPA, diethylenetriaminepentaacetic acid]
interaction with tobramycin ([1]; FIG. 14): synergy
effect on the MIC of tobramycin [1]: reduce the MIC

CC(C)(O/N=C(\C(=O)N[C@@H]1C(=O)N2C(C(=O)[O-])=C(C[n+]3ccccc3)CS[C@H]12)c1csc(N)n1)C(=O)O [ceftazidime]
rate of killing in the presence of buffered CaEDTA (P. aeruginosa ATCC27853): much more rapid

sodium EDTA
lung function or infection status (P. aeruginosa): no change in lung function or infection status

C[C@H]1[C@H](NC(=O)/C(=N\OC(C)(C)C(=O)O)c2csc(N)n2)C(=O)N1S(=O)(=O)O [aztreonam]
sensitivity of P. aeruginosa to the antibiotic in the presence of buffered CaEDTA [2]: increases the sensitivity

CC[C@H]1OC(=O)[C@H](C)[C@@H](O[C@H]2C[C@@](C)(OC)[C@@H](O)[C@H](C)O2)[C@H](C)[C@@H](O[C@@H]2O[C@H](C)C[C@H](N(C)C)[C@H]2O)[C@](C)(O)C[C@@H](C)C(=O)[C@H](C)[C@@H](O)[C@]1(C)O [erythromycin]
sensitivity of P. aeruginosa to the antibiotic in the presence of buffered CaEDTA [2]: increases the sensitivity

NC[C@H]1O[C@H](O[C@H]2[C@H](O)[C@@H](O[C@H]3O[C@H](CO)[C@@H](O)[C@H](N)[C@H]3O)[C@H](N)C[C@@H]2N)[C@H](N)C[C@@H]1O [tobramycin]
MIC of B. cepacia in the presence of buffered CaEDTA [3]: lowered
biofilm viability (BacLight LIVE/DEAD, confocal microscopy) [4]: little effect on viability
biofilm formation at sub-MIC concentration ([5]; tobramycin alone, 4 ug/ml, FIG. 5): increase biofilm formation
MIC [6]: > 256 µg/mL

CC1(C)S[C@@H]2[C@H](NC(=O)C(C(=O)O)c3ccccc3)C(=O)N2[C@H]1C(=O)O (stereo partly shown) [carbenicillin]
sensitivity of P. aeruginosa to the antibiotic in the presence of buffered CaEDTA [2]: increases the sensitivity

COc1cccc(OC)c1C(=O)N[C@@H]1C(=O)N2[C@@H]1SC(C)(C)[C@@H]2C(=O)O [methicillin]
sensitivity of P. aeruginosa to the antibiotic in the presence of buffered CaEDTA [2]: increases the sensitivity

O=C(O)c1cn(C2CC2)c2cc(N3CCNCC3)c(F)cc2c1=O [ciprofloxacin]
MIC in the presence of buffered CaEDTA [7]: reduced MIC values
MIC in the presence of buffered CaEDTA (S. aureus MSSA): reduced MIC values
MIC of B. cepacia in the presence of buffered CaEDTA [3]: lowered

O=C([O-])CN(CCN(CC(=O)[O-])CC(=O)[O-])CC(=O)[O-].[Ca+2].[Na+].[Na+] [CaEDTA]
EDTA inside mucus plugs [8]: up to 1.34 mM
planktonic growth when CaEDTA is added to tobramycin (P. aeruginosa WACC91; [11]): reduced
interaction with tobramycin, planktonic growth (OD600 nm) (P. aeruginosa WACC91; aerobic conditions, FIG. 1): synergistic effect
interaction with tobramycin, planktonic growth (OD600 nm) (P. aeruginosa WACC91; anaerobic conditions, FIG. 3): synergistic effect
effect on the MIC of tobramycin (P. aeruginosa WACC91; planktonic cells, aerobic conditions, FIG. 1): lowers the MIC
lowest effective concentration in vitro (P. aeruginosa WACC91; with tobramycin, FIGS. 1B and 2B): 0.078 mM
effect on efficacy of tobramycin against existing biofilms (metabolic activity) (P. aeruginosa biofilms; FIG. 6): increases the efficacy
dependence of the synergistic effect on mode of delivery (P. aeruginosa biofilms; solution or dry powder, FIG. 6B): does not depend on the mode of delivery
interaction with tobramycin, metabolism of biofilms (P. aeruginosa biofilms; submicron particles of CaEDTA, aerosolised, 96-well plates, FIG. 6): synergistic effect
effect on killing of biofilms by tobramycin (P. aeruginosa biofilms; tobramycin concentrations<1 mg/ml, FIG. 6A): substantially enhances killing
improvement in lung function (FEV1), average [9]: 16 % points
biofilm viability (BacLight LIVE/DEAD, confocal microscopy) [4]: some degree of killing
interaction with tobramycin on biofilms in CF mucus ([4]; submicron particles of CaEDTA, tobramycin 325 μg/ml final in droplets, FIG. 24): act synergistically
biofilm growth when CaEDTA is added to tobramycin [5, 11]: reduced
interaction with tobramycin, biofilm growth (CV staining) ([5]; aerobic conditions, checkerboard, FIG. 2): synergistic effect
effect on the concentration of tobramycin required to block biofilm formation ([5]; aerobic, FIG. 2): lowers the concentration of tobramycin required
interaction with tobramycin, biofilms ([5]; anaerobic conditions, checkerboard, FIG. 4): synergistic effect

O=C(O)CN(CCOCCOCCN(CC(=O)O)CC(=O)O)CC(=O)O [EGTA, ethylene glycol tetraacetic acid]
effect on the MIC of tobramycin [1]: reduce the MIC

colistin
sensitivity of planktonic cells in the presence of buffered CaEDTA ([10]; FIG. 17A): sensitized
sensitivity of biofilms in the presence of buffered CaEDTA ([10]; FIG. 17B): sensitized
sensitivity of P. aeruginosa to the antibiotic in the presence of buffered CaEDTA [2]: increases the sensitivity

CN[C@H](CC(C)C)C(=O)N[C@H]1C(=O)N[C@@H](CC(N)=O)C(=O)N[C@H]2C(=O)N[C@H]3C(=O)N[C@H](C(=O)N[C@H](C(=O)O)c4cc(O)cc(O)c4-c4cc3ccc4O)[C@H](O)c3ccc(c(Cl)c3)Oc3cc2cc(c3O[C@@H]2O[C@H](CO)[C@@H](O)[C@H](O)[C@H]2O[C@H]2C[C@](C)(N)[C@H](O)[C@H](C)O2)Oc2ccc(cc2Cl)[C@H]1O [vancomycin]
MIC in the presence of buffered CaEDTA [7]: reduced MIC values
